Test results published in publication PMC6934184, “Selective DNA-PKcs inhibition extends the therapeutic index of localized radiotherapy and chemotherapy” (The Journal of Clinical Investigation, 2019).

Molecular target: T1, KIT V654A (Homo sapiens, UniProt P10721, V654A)
T1 construct: purchased Thermo Fisher Scientific (Life Technologies) SelectScreen
Test: SelectScreen LanthaScreen
Assay type: binding
Details: read-out: % displacement
How it was run: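 SelectScreen broad panel; activity (Z'LYTE, Adapta) plus binding formats. ATP: Km app for CSF1R Z'LYTE; 10 for CAMK1 Adapta. Readout = % per kinase.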

T1 sequence (P10721 26-976 V654A): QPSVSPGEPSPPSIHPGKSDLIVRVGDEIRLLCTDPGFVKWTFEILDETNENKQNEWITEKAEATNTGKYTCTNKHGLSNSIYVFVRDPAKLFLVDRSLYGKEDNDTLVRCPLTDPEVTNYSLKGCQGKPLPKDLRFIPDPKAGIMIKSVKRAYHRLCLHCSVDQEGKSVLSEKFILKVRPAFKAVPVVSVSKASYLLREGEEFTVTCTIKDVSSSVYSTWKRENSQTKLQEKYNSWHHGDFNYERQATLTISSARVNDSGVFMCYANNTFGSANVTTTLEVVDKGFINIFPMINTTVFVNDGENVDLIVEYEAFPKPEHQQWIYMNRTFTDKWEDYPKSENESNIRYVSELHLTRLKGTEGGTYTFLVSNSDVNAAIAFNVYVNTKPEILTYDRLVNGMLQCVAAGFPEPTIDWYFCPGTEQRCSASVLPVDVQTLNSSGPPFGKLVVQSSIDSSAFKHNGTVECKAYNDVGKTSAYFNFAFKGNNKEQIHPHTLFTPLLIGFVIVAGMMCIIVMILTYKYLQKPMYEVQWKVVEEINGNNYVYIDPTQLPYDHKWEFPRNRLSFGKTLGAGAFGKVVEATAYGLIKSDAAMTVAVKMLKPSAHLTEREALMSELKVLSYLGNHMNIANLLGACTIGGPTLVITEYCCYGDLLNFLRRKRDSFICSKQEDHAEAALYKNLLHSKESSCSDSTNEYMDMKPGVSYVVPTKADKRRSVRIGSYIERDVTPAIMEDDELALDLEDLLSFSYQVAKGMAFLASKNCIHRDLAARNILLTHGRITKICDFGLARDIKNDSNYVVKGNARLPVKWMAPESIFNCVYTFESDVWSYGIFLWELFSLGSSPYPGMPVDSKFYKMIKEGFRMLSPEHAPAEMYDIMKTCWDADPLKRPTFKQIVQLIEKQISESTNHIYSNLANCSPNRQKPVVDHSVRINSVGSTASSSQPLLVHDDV

For CN(C(=O)CN1CCOCC1)c1ccc2sc3c(-c4cccc5c(=O)cc(N6CC7CCC(C6)O7)oc45)cccc3c2c1 [NU5455], the inhibition at 1 µM was 8.1%.
